Legend:
[1] = biological target: T1, microsomal triglyceride transfer protein (MTP) (Mesocricetus auratus, UniProt P55158); assay: Inhibition of MTP activity (transfer of [3H]-triolein from donor liposomes to biotinylated LDL, SPA); type: biochemical; settings: MTP from golden hamster liver microsomes; incubation 18-24 hours at 37° C.; read-out: IC50 (concentration that allows a 50% inhibition of MTP)
T1 construct: The supernatant comprising the soluble MTP is dialysed against Tris/HCl 150 mM; from tissue; host or cells: golden hamster liver microsomes, deoxycholate-solubilised supernatant
T1 sequence (P55158 19-895): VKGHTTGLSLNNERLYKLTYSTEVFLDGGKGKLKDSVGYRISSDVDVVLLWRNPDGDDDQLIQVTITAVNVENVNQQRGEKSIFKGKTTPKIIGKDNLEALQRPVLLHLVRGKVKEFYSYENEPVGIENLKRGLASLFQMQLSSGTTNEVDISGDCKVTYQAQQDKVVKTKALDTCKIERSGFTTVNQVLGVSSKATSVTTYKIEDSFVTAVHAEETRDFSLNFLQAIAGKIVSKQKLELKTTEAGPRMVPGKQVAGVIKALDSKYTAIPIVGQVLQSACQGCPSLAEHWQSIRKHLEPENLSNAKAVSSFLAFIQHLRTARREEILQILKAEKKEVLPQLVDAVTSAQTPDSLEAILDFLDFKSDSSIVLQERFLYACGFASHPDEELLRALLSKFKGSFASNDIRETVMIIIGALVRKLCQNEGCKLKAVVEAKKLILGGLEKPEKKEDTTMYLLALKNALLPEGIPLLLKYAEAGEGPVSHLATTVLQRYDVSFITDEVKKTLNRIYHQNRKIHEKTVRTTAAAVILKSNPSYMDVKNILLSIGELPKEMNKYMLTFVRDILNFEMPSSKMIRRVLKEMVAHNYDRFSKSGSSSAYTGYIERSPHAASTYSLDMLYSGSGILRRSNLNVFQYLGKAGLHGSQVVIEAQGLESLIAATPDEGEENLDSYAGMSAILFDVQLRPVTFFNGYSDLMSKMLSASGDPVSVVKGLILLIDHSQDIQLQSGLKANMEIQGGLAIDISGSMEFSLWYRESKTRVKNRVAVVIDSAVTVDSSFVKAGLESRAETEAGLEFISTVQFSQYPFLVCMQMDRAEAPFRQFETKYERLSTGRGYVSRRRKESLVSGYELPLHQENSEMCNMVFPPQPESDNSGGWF
Description: Analysis of the Inhibition of MTP Activity
The inhibition of the activity of microsomal triglyceride transfer protein (MTP) was tested by using the following operating protocol.
The inhibition of MTP activity with a compound can be quantified by observing the inhibition of the transfer of a labelled triglyceride, from a donor particle to an acceptor particle, in the presence of MTP. The procedure for the preparation of MTP is based on the method by Wetterau and Zilversmit (Biochem. Biophys. Acta (1986) 875, 610). A few grams of golden hamster liver are taken and then rinsed several times in a 250 mM sucrose solution at 0° C. All the following steps proceed at +4° C. A homogenate at a concentration of 50% in 250 mM sucrose is prepared using a Teflon mill and then centrifuged for 10 minutes at 10 000×g at +4° C. The supernatant is then centrifuged at 105 000×g for 75 minutes at +4° C. The supernatant is discarded and the microsomal pellet is taken up in 3 ml (per g of starting liver) of Tris/HCl 150 mM pH 8.0. 1 ml aliquot fractions are stored at −80° C. until the time of use.
After thawing a fraction of microsomes (1 ml), 12 ml of refrigerated Tris/HCl 50 mM, KCl 50 mM, MgCl2 5 mM pH 7.4 buffers and 1.2 ml of deoxycholate (0.54% in water) are added. After incubation for 30 minutes at +4° C. with gentle agitation, the suspension is centrifuged at 105 000×g for 75 minutes. The supernatant comprising the soluble MTP is dialysed against Tris/HCl 150 mM, NaCl 40 mM, EDTA 1 mM, 0.02% sodium azide pH 7.4 buffer (5 times one litre over 2-3 days). The MTP is stored at +4° C., is stable for at least 30 days and is used in unmodified form in the test.
The donor particles (liposomes) are prepared from 208 μl of L-phosphatidylcholine at a concentration of 10 mg/ml in chloroform, and 480 μl of [3H]-triolein at a concentration of 0.5 mCi/ml in toluene. After stirring, the solution is evaporated under nitrogen, taken up in 6 ml of Tris/HCl 50 mM, KCl 50 mM, MgCl2 5 mM pH 7.4 buffer and incubated in an ultrasound bath for 30 minutes at room temperature. The liposomes are stored at +4° C. and sonicated again for 10 minutes before each use.
The acceptor particles are biotinylated low density lipoproteins (LDL-biot). These particles are supplied by the company Amersham.
The reaction mixture is prepared in untreated ½ well white plates (Corning Costar) by addition, in the following order, of: 5 μl of HEPES 50 mM, NaCl-150 mM, BSA 0.1% (w/v), 0.05% sodium azide (w/v), pH 7.4 buffer; 5 μl of liposomes; 5 μl of LDL-biot; 5 μl of test products in DMSO; 5 μl of MTP. After incubation for 18-24 hours at 37° C., the reaction is stopped by adding 100 μl of Amersham SPA (scintillation proximity assay) beads coupled to streptavidin, and the radioactivity is counted using a Top Count (Packard) machine at least one hour later. The inhibition of the transfer of the triglycerides with a compound is reflected by a reduction in the transferred radioactivity.
The results are expressed in terms of the IC50, i.e. the concentration that allows a 50% inhibition of MTP.

[2] = system: apo B secretion in HepG2 cells; assay: Secretion of apo B in the HepG2 human cell line (sandwich ELISA); type: cell-based; settings: 24 hours incubation, culture supernatant, ELISA for human apo B, read-out: IC50 (concentration that produces a 50% inhibition of apo B secretion in the HepG2 cells)
Description: Analysis of the Secretion of Apo B in the HepG2 Human Cell Line:
The activity of a compound according to the invention can be evaluated by measuring the inhibition of apo B secretion in HepG2 cells.
The HepG2 cells (ECACC-No. 85011430) are used as model in the study of the in vitro hepatic secretion of lipoproteins (Dixon J. and Ginsberg H., J. Lipid. Res., 1993, 34, 167-179).
The HepG2 cells are cultured in Dulbecco's modified Eagle's medium comprising 10% foetal calf serum (DMEM and FBS-Gibco) in 96-well plates under an atmosphere of 5% carbon dioxide for 24 hours (about 70% confluence).
The test compounds are dissolved at a concentration of 2 or 10 mM in dimethyl sulfoxide (DMSO). Serial dilutions (1:3.16) are made in DMSO and are:added (1:200—Robot Multimek Beckman) to the growth medium (200 μl) and then finally incubated for 24 hours in the various wells containing the HepG2 cells.
The 24-hour culture supernatant diluted to 1:5 (phosphate-buffered saline: PBS comprising 1% bovine serum albumin) is tested according to a sandwich-ELISA method specific for human apo B.
The results are expressed in terms of IC50, i.e. the concentration that produces a 50% inhibition of apo B secretion in the HepG2 cells.

Row | SMILES | IC50 [1] [nM] | IC50 [2] [nM]
1 | CCn1c(-c2csc(C3CCCN(C(=O)c4ccccc4-c4ccc(C(F)(F)F)cc4)C3)n2)nc(-c2ccccc2)c1C (stereo not shown) [Example 7, {3-[4-(1-ethyl-5-methyl-4-phenyl-1H-imidazol-2-yl)thiazol-2-yl]piperid-1-yl}(4′-trifluoromethylbiphenyl-2-yl)methanone] | – | 2090
2 | CCn1c(-c2csc(C3CCN(C(=O)c4ccccc4-c4ccc(C(F)(F)F)cc4)CC3)n2)nc(-c2cccnc2)c1C [Example 4, {4-[4-(1-ethyl-5-methyl-4-(pyrid-3-yl)-1H-imidazol-2-yl)thiazol-2-yl]-piperid-1-yl}(4′-trifluoromethylbiphenyl-2-yl)methanone] | 816 | 1570
3 | CCn1c(-c2csc(C3CCN(C(=O)c4cccc(C)c4-c4ccc(OC(F)(F)F)cc4)CC3)n2)nc(-c2ccccn2)c1C [Example 6, {4-[4-(1-ethyl-5-methyl-4-(pyrid-2-yl)-1H-imidazol-2-yl)thiazol-2-yl]-piperid-1-yl}(6-methyl-4′-trifluoromethoxybiphenyl-2-yl)methanone] | 1830 | 2300
4 | CCn1c(-c2csc(C3CCN(C(=O)c4ccccc4-c4ccc(C(F)(F)F)cc4)CC3)n2)nc(-c2ccccn2)c1C [Example 5, {4-[4-(1-ethyl-5-methyl-4-(pyrid-2-yl)-1H-imidazol-2-yl)thiazol-2-yl]-piperid-1-yl}(4′-trifluoromethylbiphenyl-2-yl)methanone] | 2540 | 2620

Now those with a lower IC50 [2], led by results:

Row | IC50 [1] [nM] | IC50 [2] [nM] | SMILES
5 | 270 | 390 | CCn1c(-c2csc(C3CCN(C(=O)c4ccccc4-c4ccc(C(F)(F)F)cc4)CC3)n2)nc(-c2ccccc2)c1C [Example 3, {4-[4-(1-ethyl-5-methyl-4-phenyl-1H-imidazol-2-yl)thiazol-2-yl]piperid-1-yl}(4′-trifluoromethylbiphenyl-2-yl)methanone]
6 | 320 | 369 | CCn1c(-c2csc(C3CCN(C(=O)c4cccc(C)c4-c4ccc(OC(F)(F)F)cc4)CC3)n2)nc(-c2ccccc2)c1C [Example 1, {4-[4-(1-Ethyl-5-methyl-4-phenyl-1H-imidazol-2-yl)thiazol-2-yl]piperid-1-yl}(6-methyl-4′-trifluoromethoxybiphenyl-2-yl)methanone]
7 | 300 | 616 | Cc1c(-c2ccccc2)nc(-c2csc(C3CCN(C(=O)c4ccccc4-c4ccc(C(F)(F)F)cc4)CC3)n2)n1C [Example 2, {4-[4-(1,5-dimethyl-4-phenyl-1H-imidazol-2-yl)thiazol-2-yl]piperid-1-yl}(4′-trifluoromethylbiphenyl-2-yl)methanone]
